Measurements reported in patent US5545545A, “Lysine-insensitive maize dihydrodipicolinic acid synthase” (priority 1993, dated 1996).
Like-named read-outs stand apart in the source and are kept apart here.

Legend:
[1] = biological target: T1, wildtype E. coli DHPS from 71-18dapA+ (Escherichia coli, UniProt P0A6L2); assay: DHPS activity in crude lysate of wildtype 71-18dapA+ cells, with or without lysine; format: biochemical
T1 construct: Crude lysates from wildtype 71-18dapA; endogenous in cells; host or cells: E. coli 71-18 (dapA+), crude desalted lysate
Protocol: (§1) Crude lysates from wildtype 71-18dapA^+ cells, AT997dapA^- transformed with pUC13 lacking a cDNA insert, and the five complementing transformant cell lines AT997(pZM DHPS1) to AT997(pZM DHPS5) were assayed for DHPS activity. The transformed cells were grown overnight in M9 medium+100 μM DAP, collected by centrifugation at 5000×g for 10 min and resuspended in 1/10 volume of extraction buffer (100 mM TRIS-HCl, pH 8.0, 100 mM NaCl, 100 mM pyruvate). Cells were placed briefly on ice, disrupted by sonication (60 W, 15 s) and debris removed by centrifugation at 15000×g for 15 min. The supernatant was desalted on a G25 Sephadex column equilibrated with 10 mM TRIS-HCl, pH 8.0 and 1 mM EDTA and used for enzyme assays.
(§2) The DHPS assay buffer (R. M. Wallsgrove et al., Phytochem., 20, 2651 (1981)) contained 100 mM TRIS-HCl, pH 8.0, 10 mM pyruvate, 1.4 mM aspartate semialdehyde neutralized just prior to use, and 100 μl enzyme in a final volume of 250 μl. Tubes were incubated at 37° C. for 30 min and reactions stopped by addition of 1 ml of 0.22M sodium citrate, 0.55M sodium phosphate, pH 5.0 and 0.25 mg/ml-aminobenzaldehyde. The colored reaction product was allowed to form for 3 hr at 37° C. and samples were centrifuged at 10000 g. Activity units (0.001 OD/min) were determined at 520 nm; standard errors of replicate assays were routinely <2% of the mean.

[2] = test system: maize DHPS (cDNA expression product in AT997dapA- transformants); assay: DHPS activity in crude lysates of AT997dapA- transformants pZM DHPS1 to pZM DHPS5, with or without lysine; format: biochemical; conditions: for % Inhibition: 100 μM lysine
Protocol: as §1, §2

[3] = biological target: T2, Purified DHPS from Black Mexican Sweet maize (Zea mays, UniProt P26259); assay: DHPS activity of purified maize DHPS, with or without lysine; format: biochemical
T2 construct: from tissue; host or cells: Black Mexican Sweet maize suspension cultures (endogenous enzyme, purified more than 4000-fold)
T2 sequence (P26259 55-380): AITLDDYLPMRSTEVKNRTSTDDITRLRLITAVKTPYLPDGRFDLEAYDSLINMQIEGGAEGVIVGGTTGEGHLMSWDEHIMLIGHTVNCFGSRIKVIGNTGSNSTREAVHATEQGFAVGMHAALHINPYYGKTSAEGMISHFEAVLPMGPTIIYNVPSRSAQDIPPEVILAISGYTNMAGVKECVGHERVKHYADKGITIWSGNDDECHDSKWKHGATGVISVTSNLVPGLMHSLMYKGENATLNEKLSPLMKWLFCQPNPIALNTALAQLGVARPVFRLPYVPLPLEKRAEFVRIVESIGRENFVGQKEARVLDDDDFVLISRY
Protocol: as §2
The putative start of the coding region for maize DHPS was established by comparison of the N-terminus amino acid sequence of SDS-PAGE purified DHPS monomer with the amino acid sequence derived from the nucleotide sequence. DHPS was purified more than 4000-fold with 25% recovery from Black Mexican Sweet maize suspension cultures by the procedure of D. A. Frisch et al., Plant Physiol., 96, 444 (1991). Only one protein band (ca. 130000 Mr) was detected by silver-staining after native polyacrylamide gel electrophoresis (PAGE) and this band corresponded to the position of DHPS activity. […]

native Zea mays DHPS [4] = biological target: T3, native Zea mays DHPS (Zea mays, UniProt P26259); assay: Lysine feedback inhibition of native maize DHPS in vitro; format: biochemical; conditions: native Zea mays DHPS / native plant DHP synthase, read-out: I50 of feedback inhibition by lysine
T3 construct: host or cells: maize cells (highly purified DHPS)
T3 sequence (P26259 55-380): T2 sequence (P26259 55-380)
Source text: For example, novel plants resulting from the present method contain extractable lysine levels at least about ten times, and preferably, at least about 50 times, e.g., about 50-250 times higher than plants of the same species which contain only native DHPS.
This difference in lysine sensitivity was an additional indication that the cDNA inserts were from maize and that restoration of DHPS activity in the E. coli mutant was not caused by reversion of the dapA^- allele or due to an interaction with pUC13 plasmid DNA. In preliminary tests of partially purified DHPS from cell line pZM DHPS5, the [I]0.5 value for lysine was determined to be in the range of 20 to 30 μM.

[5] = test system: wildtype maize DHPS (pZM DHPS5B) fusion protein expressed in AT997 E. coli; assay: Lysine inhibition of partially purified wildtype maize DHPS fusion protein (FIG. 4); format: biochemical
Protocol: (§3) AT997 cells (approximately 1 ml packed vol), containing plasmids pZM DHPS5B, pZM DHPS-M1 or pZM DHPS-M2, were extracted by sonication (60 W, 20 s) into 5 ml of ice cold buffer containing (100 mM TRIS-HCl, pH 8.0, 100 mM NaCl, 50 mM pyruvate) and then centrifuged at […] for 10 min. The supernatant was placed in a water bath (60° C.) for 5 min, cooled to 4° C. and centrifuged. The resulting supernatant was desalted on a Sephadex G50 column in 10 mM TRIS-HCl, pH 8.0, and 1 mM EDTA.
(§4) DHPS activity was determined as described in Example 2 except that the reaction was stopped after 2 min; at longer reaction times, activity was not linear with time. The volume of enzyme was adjusted so that the absorbance at 520 nm increased approximately 0.1 A (=100 activity units) after 2 min for standard control assays. Lysine concentrations were varied from 0.01 mM to 1.0 mM in the presence of constant concentrations of the substrates pyruvate (20 mM) and aspartate semialdehyde (1.4 mM). The average of two or three assays were used to determine enzyme activity values and percent inhibition by lysine.

[6] = biological target: T4, altered maize DHPS (pZM DHPS-M1) fusion protein expressed in AT997 E. coli (Zea mays, UniProt P26259, A166V/R367Q); assay: Lysine inhibition of partially purified mutant DHPS-M1 fusion protein (FIG. 4); format: biochemical
T4 construct: made in house; host or cells: E. coli AT997 dapA- (pZM DHPS-M1), heat-treated, desalted extract
Protocol: as §3, §4

[7] = biological target: T5, altered maize DHPS (pZM DHPS-M2) fusion protein expressed in AT997 E. coli (Zea mays, UniProt P26259); assay: Lysine inhibition of partially purified mutant DHPS-M2 fusion protein (FIG. 4); format: biochemical; conditions: L-lysine concentrations as high as 1.0 mM
T5 construct: heat-treated, desalted extract
Protocol: as §3, §4

[8] = biological target: T6, DHPS from wildtype, nontransformed E. coli strain DH5A (Escherichia coli, UniProt P0A6L2); assay: Lysine inhibition of DHPS from wildtype nontransformed E. coli (FIG. 4); format: biochemical; conditions: lysine concentrations up to 1 mM
T6 construct: DHPS from wildtype, nontransformed E. coli strain DH5A; endogenous in cells; host or cells: E. coli DH5A

[9] = biological target: T7, altered maize DHPS (pZM DHPS-M3, threonine for alanine at position 112) (Zea mays, UniProt P26259, A166T/R367Q); assay: Lysine sensitivity of DHPS activity of mutant pZM DHPS-M3; format: biochemical
T7 construct: the 380 amino acids of the maize cDNA coding region; beta-galactosidase N-terminal residues (5 aa) (N); vector polylinker (18 aa) (N); translated 5' untranslated region of the cDNA (13 aa) (N); made in house; host or cells: E. coli AT997 dapA- (inferred from the repeated mutagenesis and selection protocol)
Source text: (§5) Additional independently derived mutations in maize DHPS were obtained by repeating the mutagenesis and selection protocol in separate experiments. […] Mutant plasmid pZM DHPS-M3 has a nucleotide change at position #496 (ACA instead of GCA); this change causes substitution of threonine for alanine at the same amino acid position (112) as altered in mutant pZM DHPS-M1. Mutant plasmid pZM DHPS-M4 has a nucleotide change at position #484 (AAA instead of GAA); this change causes substitution of lysine for glutamic acid at amino acid position #108.

[10] = biological target: T8, altered maize DHPS (pZM DHPS-M4, lysine for glutamic acid at position 108) (Zea mays, UniProt P26259, E162K/R367Q); assay: Lysine sensitivity of DHPS activity of mutant pZM DHPS-M4; format: biochemical
T8 construct: the 380 amino acids of the maize cDNA coding region; beta-galactosidase N-terminal residues (5 aa) (N); vector polylinker (18 aa) (N); translated 5' untranslated region of the cDNA (13 aa) (N); made in house; host or cells: E. coli AT997 dapA- (inferred from the repeated mutagenesis and selection protocol)
Source text: as §5

native Zea mays DHPS [11] = biological target: T3, native Zea mays DHPS; conditions: highly purified DHPS from maize cells; Frisch et al., Plant Physiol., 96, 444 (1991); read-out: [I]0.5 value for lysine; cited from earlier work

T4 sequence (P26259 whole entry A166V/R367Q, the tested form may be a part): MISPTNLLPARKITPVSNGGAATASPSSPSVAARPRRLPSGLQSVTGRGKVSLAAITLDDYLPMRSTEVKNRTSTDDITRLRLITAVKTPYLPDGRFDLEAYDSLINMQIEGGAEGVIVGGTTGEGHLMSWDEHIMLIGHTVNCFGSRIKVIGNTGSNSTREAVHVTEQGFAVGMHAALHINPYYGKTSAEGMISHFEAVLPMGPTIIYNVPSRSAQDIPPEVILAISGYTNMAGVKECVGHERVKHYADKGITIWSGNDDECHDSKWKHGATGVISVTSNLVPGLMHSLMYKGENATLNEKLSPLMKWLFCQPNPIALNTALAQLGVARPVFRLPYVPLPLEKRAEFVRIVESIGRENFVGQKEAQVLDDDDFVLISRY
T1 sequence (P0A6L2 whole entry): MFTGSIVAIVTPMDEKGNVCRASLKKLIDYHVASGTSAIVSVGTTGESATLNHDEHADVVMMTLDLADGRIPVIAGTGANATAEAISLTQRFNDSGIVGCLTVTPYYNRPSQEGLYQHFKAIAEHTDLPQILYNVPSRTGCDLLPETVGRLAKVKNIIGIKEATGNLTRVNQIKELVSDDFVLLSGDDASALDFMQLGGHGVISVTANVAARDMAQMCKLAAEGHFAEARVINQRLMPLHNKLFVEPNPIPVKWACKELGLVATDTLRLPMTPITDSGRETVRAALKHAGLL
T6 sequence (P0A6L2 whole entry): as above
T7 sequence (P26259 whole entry A166T/R367Q): as the sequence (P26259 whole entry A166V/R367Q, the tested form may be a part) above, with V166T counted along it
T8 sequence (P26259 whole entry E162K/R367Q): as the sequence (P26259 whole entry A166V/R367Q, the tested form may be a part) above, with E162K, V166A counted along it
T5 sequence (P26259 whole entry, the tested form may be a part): as the sequence (P26259 whole entry A166V/R367Q, the tested form may be a part) above, with V166A, Q367R counted along it

Compound: NCCCC[C@H](N)C(=O)O [lysine, L-lysine]
- Specific Activity, 100 μM Lysine ([1]; 71-18dapA+ crude lysate): 120 0.001 OD520 /min per milligram
- inhibition at 100 µM ([1]; 71-18dapA+, 100 μM lysine): 8%
- Specific Activity, 100 μM Lysine ([2]; AT997dapA- (pZM DHPS1)): 24 0.001 OD520 /min per milligram
- % Inhibition ([2]; AT997dapA- (pZM DHPS1)): 90%
- Specific Activity, 100 μM Lysine ([2]; AT997dapA- (pZM DHPS2)): 15 0.001 OD520 /min per milligram
- % Inhibition ([2]; AT997dapA- (pZM DHPS2)): 91%
- Specific Activity, 100 μM Lysine ([2]; AT997dapA- (pZM DHPS3)): 22 0.001 OD520 /min per milligram
- % Inhibition ([2]; AT997dapA- (pZM DHPS3)): 88%
- Specific Activity, 100 μM Lysine ([2]; AT997dapA- (pZM DHPS4)): 42 0.001 OD520 /min per milligram
- % Inhibition ([2]; AT997dapA- (pZM DHPS4)): 86%
- Specific Activity, 100 μM Lysine ([2]; AT997dapA- (pZM DHPS5)): 27 0.001 OD520 /min per milligram
- % Inhibition ([2]; AT997dapA- (pZM DHPS5)): 90%
- inhibition at 100 µM ([3]; 100 μM lysine): 97%
- DHPS activity, 100 μM Lysine ([3]; specific activity not determined (footnote b)): 8 units of DHPS activity
- IC50 (native Zea mays DHPS [4]): 25 µM
- inhibition of wildtype maize DHPS activity ([5]; 100 μM lysine, E. coli transformants): more than 90%
- inhibition of DHPS activity by lysine ([5]; pZM DHPS5B, lysine concentrations as low as 25 μM): significantly inhibited
- inhibition of DHPS activity by lysine ([6]; DHPS expressed from SEQ ID NO. 1 in E. coli transformants, 1000 μM lysine): not inhibited
- reduction in sensitivity to lysine versus native Zea mays DHPS ([6]; altered Zea mays DHPS of SEQ ID NO. 2): more than 400 times
- L-lysine level at which altered DHPS is active, relative to native DHPS ([6]; altered maize DHPS of the invention, in vitro): at least 100 fold
- inhibition of DHPS activity by L-lysine ([6]; pZM DHPS-M1, L-lysine concentrations as high as 1.0 mM): not inhibited
- inhibition of DHPS activity by L-lysine [7]: not inhibited
- inhibition of DHPS activity by lysine [8]: intermediate level of inhibition
- lysine sensitivity of DHPS activity [9]: lysine insensitivity
- lysine sensitivity of DHPS activity [10]: lysine insensitivity
- IC50 (native Zea mays DHPS [11]): 23 µM
